Key:
[1] = Liver microsome stability, human; format: in vitro ADME; conditions: liver microsomes
Procedure: (§1) • Compounds: Ketanserin, Formula 18, Formula 45 • Liver microsomes: Human liver microsomes (purchased from BioreclamationIVT); Dog, mouse, rat, and monkey liver microsomes (purchased from Xenotech)
(§2) Preparation of 500 μM compound solution: Add 5 μL of 10 mM compound solution and 95 μL of DMSO to an EP tube.
(§3) Preparation of solution containing 0.75 mg/mL liver microsomes and 1.5 μM compound: Add 1.5 μL of the 500 μM compound solution, 18.75 μL of the 20 mg/mL liver microsome solution, and 479.75 μL of PBS to an EP tube.
(§4) Preparation of 6 mM NADPH solution: Dissolve 5 mg of NADPH in 1 mL of PBS solution.
(§5) Add 30 μL of the solution containing 0.75 mg/mL liver microsomes and a concentration gradient of the compound to a 96-well plate. Add 15 μL of the 6 mM NADPH solution and 150 μL of a 1:1 acetonitrile:methanol solution containing an internal standard (IS). Vortex and centrifuge at 6,000 rpm for 10 min. 80 μL of the supernatant from each concentration sample is transferred to a 96-well plate containing 140 μL of pure water for LC/MS detection (injection volume of […]). […]
(§6) 80 μL of the supernatant from each well is transferred to a 96-well plate containing 140 μL of pure water for LC/MS detection (injection volume of […]). The compound concentration value is determined by comparing the corresponding mass spectrometry peak area with the standard curve. […]

[2] = Liver microsome stability, monkey; format: in vitro ADME; conditions: liver microsomes
Procedure: as §1, §2, §3, §4, §5, §6

[3] = Liver microsome stability, rat; format: in vitro ADME; conditions: liver microsomes
Procedure: as §1, §2, §3, §4, §5, §6

CDK13 [4] = biological target: T1, CDK13 (Homo sapiens, UniProt Q14004); assay: Western blot degradation of CDK13 (Example 2); format: cell-based; set-up: degradation of CDK12/13 protein in leukemia cells KASUMI-1, MV4-11, and Jurkat; endogenous in cells; conditions: DC50 classes; cell line not given; read-out: CDK13 degradation Activity
T1 sequence (Q14004 whole entry): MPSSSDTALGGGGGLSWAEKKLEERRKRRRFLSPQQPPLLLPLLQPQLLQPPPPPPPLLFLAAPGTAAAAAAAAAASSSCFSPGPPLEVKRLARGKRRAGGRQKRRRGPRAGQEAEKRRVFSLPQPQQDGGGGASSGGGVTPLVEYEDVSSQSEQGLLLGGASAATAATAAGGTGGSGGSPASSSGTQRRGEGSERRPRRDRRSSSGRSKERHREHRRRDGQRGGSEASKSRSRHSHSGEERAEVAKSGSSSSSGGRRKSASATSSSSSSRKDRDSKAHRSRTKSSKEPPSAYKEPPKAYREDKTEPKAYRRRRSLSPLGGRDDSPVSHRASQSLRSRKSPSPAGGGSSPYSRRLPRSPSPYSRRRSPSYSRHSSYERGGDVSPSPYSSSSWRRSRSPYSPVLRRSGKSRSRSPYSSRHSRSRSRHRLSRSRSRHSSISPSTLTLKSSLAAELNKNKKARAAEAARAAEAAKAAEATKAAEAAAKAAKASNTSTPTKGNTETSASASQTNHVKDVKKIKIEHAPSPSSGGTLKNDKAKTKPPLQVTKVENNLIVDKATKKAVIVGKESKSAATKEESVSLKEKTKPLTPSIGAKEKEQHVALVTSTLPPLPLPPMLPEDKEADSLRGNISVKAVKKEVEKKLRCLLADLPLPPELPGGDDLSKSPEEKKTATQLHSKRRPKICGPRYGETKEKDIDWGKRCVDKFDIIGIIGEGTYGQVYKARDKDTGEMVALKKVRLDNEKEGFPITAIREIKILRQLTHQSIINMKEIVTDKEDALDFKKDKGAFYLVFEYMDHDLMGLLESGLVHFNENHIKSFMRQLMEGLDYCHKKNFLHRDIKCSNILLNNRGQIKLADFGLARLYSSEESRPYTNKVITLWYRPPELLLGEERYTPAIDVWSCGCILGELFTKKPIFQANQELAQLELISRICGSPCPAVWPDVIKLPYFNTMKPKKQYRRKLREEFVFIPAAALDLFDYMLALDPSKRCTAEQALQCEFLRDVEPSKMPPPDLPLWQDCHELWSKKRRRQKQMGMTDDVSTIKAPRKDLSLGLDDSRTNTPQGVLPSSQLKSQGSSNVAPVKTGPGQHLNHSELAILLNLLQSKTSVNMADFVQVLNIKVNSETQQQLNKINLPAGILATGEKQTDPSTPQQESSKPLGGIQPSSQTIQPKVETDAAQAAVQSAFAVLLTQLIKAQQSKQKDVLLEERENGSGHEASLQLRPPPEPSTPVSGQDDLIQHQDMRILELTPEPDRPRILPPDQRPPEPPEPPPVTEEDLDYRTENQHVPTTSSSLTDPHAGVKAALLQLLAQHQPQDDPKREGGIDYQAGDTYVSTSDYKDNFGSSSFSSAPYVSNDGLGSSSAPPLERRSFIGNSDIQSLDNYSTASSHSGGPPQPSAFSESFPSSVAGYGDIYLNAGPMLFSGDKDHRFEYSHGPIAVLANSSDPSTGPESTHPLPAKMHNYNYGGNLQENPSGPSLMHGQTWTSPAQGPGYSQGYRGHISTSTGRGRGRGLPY
T1 sequence (O75909 whole entry partner): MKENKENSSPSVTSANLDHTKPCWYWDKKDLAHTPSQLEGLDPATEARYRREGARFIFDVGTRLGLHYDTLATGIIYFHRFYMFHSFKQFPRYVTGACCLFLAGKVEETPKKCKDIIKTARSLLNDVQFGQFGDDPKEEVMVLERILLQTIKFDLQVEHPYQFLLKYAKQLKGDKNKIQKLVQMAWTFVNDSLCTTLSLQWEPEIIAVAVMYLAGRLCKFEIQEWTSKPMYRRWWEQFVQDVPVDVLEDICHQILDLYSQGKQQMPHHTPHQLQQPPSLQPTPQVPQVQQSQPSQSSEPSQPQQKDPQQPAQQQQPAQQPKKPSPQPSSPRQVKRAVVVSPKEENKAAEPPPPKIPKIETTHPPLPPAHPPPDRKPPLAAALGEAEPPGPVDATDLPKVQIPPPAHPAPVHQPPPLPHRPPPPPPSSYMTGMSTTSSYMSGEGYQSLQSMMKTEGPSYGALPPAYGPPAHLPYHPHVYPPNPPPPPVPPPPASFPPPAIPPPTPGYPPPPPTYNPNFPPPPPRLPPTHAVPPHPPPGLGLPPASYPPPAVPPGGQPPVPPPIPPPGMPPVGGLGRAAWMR

[5] = Liver microsome stability, dog; format: in vitro ADME; conditions: liver microsomes
Procedure: as §1, §2, §3, §4, §5, §6

CDK12 [6] = biological target: T2, CDK12 (Homo sapiens, UniProt Q9NYV4); assay: Western blot degradation of CDK12 (Example 2); format: cell-based; set-up: degradation of CDK12/13 protein in leukemia cells KASUMI-1, MV4-11, and Jurkat; endogenous in cells; conditions: DC50 classes; cell line not given; read-out: CDK12 degradation Activity
T2 sequence (Q9NYV4 whole entry): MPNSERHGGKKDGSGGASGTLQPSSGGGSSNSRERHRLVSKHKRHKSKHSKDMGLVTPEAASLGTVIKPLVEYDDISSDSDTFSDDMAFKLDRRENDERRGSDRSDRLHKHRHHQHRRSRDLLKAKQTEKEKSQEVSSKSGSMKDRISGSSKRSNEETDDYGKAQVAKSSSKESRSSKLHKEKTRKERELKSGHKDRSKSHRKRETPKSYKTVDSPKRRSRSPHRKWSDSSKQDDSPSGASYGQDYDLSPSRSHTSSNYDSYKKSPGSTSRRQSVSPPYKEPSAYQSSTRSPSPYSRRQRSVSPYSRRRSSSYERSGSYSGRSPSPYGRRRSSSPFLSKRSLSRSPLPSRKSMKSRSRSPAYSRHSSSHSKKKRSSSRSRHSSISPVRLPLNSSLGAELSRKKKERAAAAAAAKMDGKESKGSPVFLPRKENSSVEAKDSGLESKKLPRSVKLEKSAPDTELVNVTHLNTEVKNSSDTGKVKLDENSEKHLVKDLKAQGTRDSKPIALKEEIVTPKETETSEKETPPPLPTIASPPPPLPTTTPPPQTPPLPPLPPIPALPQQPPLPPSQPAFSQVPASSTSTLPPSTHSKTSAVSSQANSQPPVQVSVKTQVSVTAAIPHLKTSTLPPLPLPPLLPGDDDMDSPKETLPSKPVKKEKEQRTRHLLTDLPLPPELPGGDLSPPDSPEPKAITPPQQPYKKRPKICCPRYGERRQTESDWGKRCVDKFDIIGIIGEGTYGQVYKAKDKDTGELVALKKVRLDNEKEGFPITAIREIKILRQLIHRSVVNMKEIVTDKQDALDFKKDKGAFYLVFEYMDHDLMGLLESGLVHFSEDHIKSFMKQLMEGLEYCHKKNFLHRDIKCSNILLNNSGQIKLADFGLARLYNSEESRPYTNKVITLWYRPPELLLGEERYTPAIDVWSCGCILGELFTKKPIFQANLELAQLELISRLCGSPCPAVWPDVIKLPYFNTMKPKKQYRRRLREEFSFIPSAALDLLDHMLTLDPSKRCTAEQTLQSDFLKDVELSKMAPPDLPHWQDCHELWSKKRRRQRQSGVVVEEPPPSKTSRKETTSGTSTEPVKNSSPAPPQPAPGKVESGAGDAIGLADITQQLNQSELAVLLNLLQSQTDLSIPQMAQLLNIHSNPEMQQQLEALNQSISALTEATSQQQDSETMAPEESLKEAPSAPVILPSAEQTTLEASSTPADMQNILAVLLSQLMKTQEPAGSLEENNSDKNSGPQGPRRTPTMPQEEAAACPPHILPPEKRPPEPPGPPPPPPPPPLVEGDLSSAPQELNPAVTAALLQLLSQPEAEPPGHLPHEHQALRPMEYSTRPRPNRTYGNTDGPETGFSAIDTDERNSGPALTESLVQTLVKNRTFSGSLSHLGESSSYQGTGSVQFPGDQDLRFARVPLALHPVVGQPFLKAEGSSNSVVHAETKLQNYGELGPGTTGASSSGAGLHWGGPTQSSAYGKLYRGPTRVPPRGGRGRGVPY
T2 sequence (O75909 whole entry partner): as the sequence (O75909 whole entry partner) above
Method in brief: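 Leukemia lines KASUMI-1, MV4-11, Jurkat, plus MDA-MB-231 for a concentration series, treated at 0.01–3 μM for 3–48 h at 37 °C against DMSO control. Lysates in 4% SDS; CDK12/13 band intensity normalized to β-Actin or GAPDH to give degradation rate.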

[7] = system: serine 2 in the C-terminal domain of RNA polymerase II (CTD-pSer2); assay: Phosphorylation of serine 2 in the C-terminal domain of RNA polymerase II, Western blot; format: cell-based; conditions: MDA-MB-231, 24 h, concentration gradient
Procedure: Protein Western blot was used to determine the degradation of CDK12/13 protein in colorectal cancer cells HCT-116, breast cancer cells MDA-MB-231, and leukemia cells Jurkat. The two compounds with the best degradation effects were further validated for their ability to degrade CDK12/13 protein in MDA-MB-231 cells using a concentration gradient. The effect of the compounds on the phosphorylation of serine 2 in the C-terminal domain of RNA polymerase II (CTD-pSer2) was also measured.
(§7) (3) Compound treatment: The 50 mM compound stock solution was diluted with cell culture medium to a final concentration of 0.01 μM-3 μM. Cells were incubated in a 37 °C incubator with 5% CO2 for 3 h-48 h. The DMSO group served as the negative control.

hERG channel = biological target: T3, hERG channel (Homo sapiens, UniProt Q12809); assay: Manual patch-clamp of hERG channel currents stably expressed in HEK293 cells; format: cell-based; conditions: 0.3 μM-30 μM, HEK293, room temperature
T3 construct: manual patch clamp of tail current
T3 sequence (Q12809 whole entry): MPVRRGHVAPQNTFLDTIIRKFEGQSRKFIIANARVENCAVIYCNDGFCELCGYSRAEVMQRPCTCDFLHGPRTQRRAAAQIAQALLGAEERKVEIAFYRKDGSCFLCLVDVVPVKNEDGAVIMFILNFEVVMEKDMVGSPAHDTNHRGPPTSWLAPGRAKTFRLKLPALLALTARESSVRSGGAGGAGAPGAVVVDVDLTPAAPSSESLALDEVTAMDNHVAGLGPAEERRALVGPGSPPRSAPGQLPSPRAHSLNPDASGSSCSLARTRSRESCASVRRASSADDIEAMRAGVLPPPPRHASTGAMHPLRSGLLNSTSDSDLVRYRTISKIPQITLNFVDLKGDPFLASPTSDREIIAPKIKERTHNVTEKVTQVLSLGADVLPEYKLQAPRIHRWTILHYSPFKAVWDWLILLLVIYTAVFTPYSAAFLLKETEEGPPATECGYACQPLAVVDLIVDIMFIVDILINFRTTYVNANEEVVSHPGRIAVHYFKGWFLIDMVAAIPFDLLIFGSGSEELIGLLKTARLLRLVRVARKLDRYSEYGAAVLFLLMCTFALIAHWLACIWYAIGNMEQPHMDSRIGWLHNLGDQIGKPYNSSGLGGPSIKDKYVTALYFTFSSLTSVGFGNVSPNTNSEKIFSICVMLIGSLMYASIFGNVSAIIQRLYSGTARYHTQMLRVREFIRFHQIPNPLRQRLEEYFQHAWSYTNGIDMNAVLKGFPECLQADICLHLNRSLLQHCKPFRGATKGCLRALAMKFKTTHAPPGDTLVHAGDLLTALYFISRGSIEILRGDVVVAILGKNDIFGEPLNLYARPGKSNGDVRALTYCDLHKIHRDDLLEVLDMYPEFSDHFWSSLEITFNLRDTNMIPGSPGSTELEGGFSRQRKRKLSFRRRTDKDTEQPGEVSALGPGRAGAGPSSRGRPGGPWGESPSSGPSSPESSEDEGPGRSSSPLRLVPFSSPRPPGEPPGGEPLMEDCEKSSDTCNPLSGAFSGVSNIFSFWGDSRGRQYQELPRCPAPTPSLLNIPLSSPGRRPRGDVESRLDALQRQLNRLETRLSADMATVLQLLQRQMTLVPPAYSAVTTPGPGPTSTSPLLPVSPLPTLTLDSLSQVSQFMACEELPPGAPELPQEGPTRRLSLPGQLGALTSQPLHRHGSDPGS
Procedure: III. Manual Patch-Clamp Detection of the Effect of Compounds on hERG Channel Currents Stably Expressed in HEK293 Cells
A 30 mM stock solution of compound 147 was prepared in DMSO. The stock solution was serially diluted with DMSO to prepare secondary stock solutions of 10 mM, 3 mM, 1 mM, and 0.3 mM. 10 μL of the secondary stock solution was diluted in 10 mL of extracellular solution to prepare final concentrations of 30 μM, […], 3 μM, 1 μM, and 0.3 μM for electrophysiological detection. A 10 mM stock solution of the positive control, cisapride, was prepared in DMSO. The stock solution was serially diluted with DMSO to prepare secondary stock solutions of 1000 μM, 100 μM, 10 μM, 1 μM, and 0.1 μM. 10 μL of the secondary stock solution was diluted in 10 mL of extracellular solution to prepare final concentrations of 1000 nM, 100 nM, 10 nM, 1 nM, and 0.1 nM for electrophysiological detection. […]
d. […] The current was recorded once every 15 s.
e. The hERG potassium channel current was recorded at room temperature before drug addition. […]
The original data hERG tail current peak values were extracted from the PatchMaster software. The current inhibition rate was calculated using the following formula:
The mean and standard error were calculated for each concentration. […]

CDK13 [8] = biological target: T1, CDK13; assay: Reversal of CDK13 degradation by proteasome inhibitor MG132, Western blot; format: cell-based; set-up: endogenous in cells; conditions: MDA-MB-231, 24 h treatment, MG132 added 12 h before sample collection
Procedure: (§8) • Cell lines: HCT-116, Jurkat, or MDA-MB-231 • Culture medium: DMEM/RIPM-1640+10% Hyclone serum • Compound dissolution method: The compounds (small molecule conjugates as shown in Formulae 101-147, MG132) were dissolved in DMSO to prepare a 50 mM stock solution and then diluted to the corresponding concentrations.
as §7

CCNK = assay: Reversal of CCNK degradation by proteasome inhibitor MG132, Western blot; format: cell-based; conditions: MDA-MB-231, 24 h treatment, MG132 added 12 h before sample collection
Procedure: as §8, §7
In the figures, CDK12, CDK13, and CCNK are the target proteins under study, and β-Actin and GAPDH are the internal reference proteins. Internal reference proteins are used to indicate the total protein amount in each experimental group for quantitative analysis.

CDK12 [9] = biological target: T2, CDK12; assay: Western blot degradation of CDK12 (Example 3); format: cell-based; set-up: degradation of CDK12/13 protein in leukemia cells KASUMI-1, MV4-11, and Jurkat; endogenous in cells
[10] = In vivo pharmacokinetics in mice; conditions: mouse, plasma, ip, 30 mg/kg, intraperitoneal
CDK12 [11] = biological target: T2, CDK12; assay: Reversal of CDK12 degradation by proteasome inhibitor MG132, Western blot; format: cell-based; set-up: endogenous in cells; conditions: MDA-MB-231, 24 h treatment, MG132 added 12 h before sample collection
Procedure: as §8, §7

CDK13 [12] = biological target: T1, CDK13; assay: Western blot degradation of CDK13 (Example 3); format: cell-based; set-up: degradation of CDK12/13 protein in leukemia cells KASUMI-1, MV4-11, and Jurkat; endogenous in cells

With `Cc1ncsc1-c1ccc([C@H](C)NC(=O)[C@@H]2C[C@@H](O)CN2C(=O)[C@@H](NC(=O)CN2CCN(c3ccc(-c4ccc(N(C(=O)NCc5ccccc5)[C@H]5CC[C@H](Nc6ccc(C#N)cn6)CC5)cc4)cn3)CC2)C(C)(C)C)cc1` [Formula 18] the half-life [1] was > 45 min, the half-life [2] was > 45 min and the half-life [3] was > 45 min. For the same compound, the DC50 (CDK13 [4]) was < 100 nM, the half-life [5] was > 45 min and the DC50 (CDK12 [6]) was < 100 nM.
With `N#Cc1ccc(NC2CCC(N(C(=O)NCc3ccccc3)c3ccc(-c4ccc(=O)n(CCOCCOCCNc5cccc6c5C(=O)N(C5CCC(=O)NC5=O)C6=O)c4)cc3)CC2)nc1` (stereo not shown) [Formula 47] the “phosphorylation of serine 2 in the C-terminal domain of RNA polymerase II (CTD-pSer2)” value [7] was “can dose-dependently downregulate the phosphorylation of serine 2”, the DC50 (CDK13 [4]) was 1000 to 3000 nM and the DC50 (CDK12 [6]) was 500 to 1000 nM.
For `CC(=O)N(c1ccc(-c2ccc(N3CCN(CC(=O)N[C@H](C(=O)N4C[C@H](O)C[C@H]4C(=O)N[C@@H](C)c4ccc(-c5scnc5C)cc4)C(C)(C)C)CC3)nc2)cc1)[C@H]1CC[C@H](Nc2ncc3ccccc3n2)CC1` [Formula 147, (2S,4R)-1-((S)-3,3-dimethyl-2-(2-(4-(5-(4-(N-((1R,4R)-4-(quinazolin-2-ylamino)cyclohexyl)acetamido)phenyl)pyridin-2-yl)piperazin-1-yl)acetamido)butanoyl)-4-hydroxy-N—((S)-1-(4-(4-methylthiazol-5-yl)phenyl)ethyl)pyrrolidine-2-carboxamide], the “inhibitory effect on the hERG channel” value (hERG channel) was “weak or no inhibitory effect on the hERG channel”, the “reversal of CDK13 degradation by MG132” value (CDK13 [8]) was “can reverse the degradation of CDK12/13 and CCNK” and the “reversal of CCNK degradation by MG132” value (CCNK) was “can reverse the degradation of CDK12/13 and CCNK”. The DC50 (CDK12 [9]; DC50 classes, cell line not given, read-out: CDK12 degradation Activity) was < 100 nM, the DC50 (CDK12 [9]; HCT116, colorectal cancer cells, read-out: CDK12 DC50) was 13 nM and the DC50 (CDK12 [9]; KASUMI-1, leukemia cells, read-out: CDK12 DC50) was 17 nM. For the same compound, the DC50 (CDK12 [9]; MDA-MB-231, breast cancer cells, read-out: CDK12 DC50) was 15 nM, the half-life [10] was 155 min and the “reversal of CDK12 degradation by MG132” value (CDK12 [11]) was “can reverse the degradation of CDK12/13 and CCNK”. The DC50 (CDK13 [12]; DC50 classes, cell line not given, read-out: CDK13 degradation Activity) was < 100 nM, the DC50 (CDK13 [12]; HCT116, colorectal cancer cells, read-out: CDK13 DC50) was 15 nM and the DC50 (CDK13 [12]; KASUMI-1, leukemia cells, read-out: CDK13 DC50) was 10 nM. It also gave a DC50 (CDK13 [12]; MDA-MB-231, breast cancer cells, read-out: CDK13 DC50) of 9 nM.
